This note sets out measurements from ChEMBL document CHEMBL3351644, “Tryptophanol-derived oxazolopiperidone lactams: identification of a hit compound as NMDA receptor antagonist” (Bioorg Med Chem Lett, 2014).

One may read the IC50 as the concentration that inhibits the measured activity by half.

The first experiment addresses Glutamate NMDA receptor. Kind of experiment: Antagonist activity at NMDA receptor in Wistar rat cerebellar granule neurons assessed as inhibition of NMDA-induced intracellular calcium by Fura-2 fluorescence assay. Format: cell-based.
As for `O=C1CCC[C@@H]2OC[C@H](Cc3c[nH]c4ccccc34)N12`, the IC50 is 305 µM.
Turning to `COC(=O)C[C@H]1CC(=O)N2[C@@H](Cc3c[nH]c4ccccc34)CO[C@@H]2C1`, the half-maximal inhibitory concentration (IC50) is above 450 µM.
For `COC(=O)C[C@H]1CC(=O)N2[C@H](Cc3c[nH]c4ccccc34)CO[C@H]2C1`, the IC50 was above 450 µM.
Still for that read-out and setting: under `COC(=O)C[C@@H]1CC(=O)N2[C@H](Cc3c[nH]c4ccccc34)CO[C@@H]2C1` stands above 450 µM; under `CC[C@H]1CCC(=O)N2[C@H](Cc3c[nH]c4ccccc34)CO[C@H]12`, above 450 µM; under `Cc1ccc(S(=O)(=O)n2cc(C[C@@H]3CO[C@H]4CCCC(=O)N34)c3ccccc32)cc1`, above 450 µM.
On the same count and under the same terms, under `O=C1CCC[C@@H]2OC[C@@H](Cc3c[nH]c4ccccc34)N12` stands 63.4 µM.
Turning to `CC[C@H]1CCC(=O)N2[C@@H](Cc3c[nH]c4ccccc34)CO[C@H]12`, the IC50 was above 450 µM.
Turning to `O=C1CC[C@@H]2OC[C@@H](Cc3c[nH]c4ccccc34)N12`, the half-maximal inhibitory concentration (IC50) came to 341 µM.
On the same count and under the same terms, under `CC[C@@H]1CCC(=O)N2[C@H](Cc3c[nH]c4ccccc34)CO[C@@H]12` stands above 450 µM.
Same read-out and setting: for `CC[C@@H]1CCC(=O)N2[C@@H](Cc3c[nH]c4ccccc34)CO[C@@H]12` the value was above 450 µM; for `O=C1CCC[C@H]2OC[C@@H](Cc3c[nH]c4ccccc34)N12`, above 450 µM; for `COC(=O)C[C@@H]1CC(=O)N2[C@@H](Cc3c[nH]c4ccccc34)CO[C@@H]2C1`, above 450 µM.
As for `O=C1CCC[C@H]2OC[C@H](Cc3c[nH]c4ccccc34)N12`, the IC50 turned out to be 429 µM.
The same measure, in the same setting: for `Cn1cc(C[C@@H]2CO[C@H]3CCCC(=O)N23)c2ccccc21` the value was above 450 µM.

Another experiment concerns the target Glutamate NMDA receptor (Rattus norvegicus) (UniProt P35439+Q00959+Q00960+Q00961+Q62645+Q8VHN2+Q9R1M7). Kind of experiment: Ratio of amantadine IC50 to compound IC50 for NMDA receptor in Wistar rat cerebellar granule neurons assessed as inhibition of NMDA-induced intracellular calcium by Fura-2 fluorescence assay. Format: cell-based.
For the compound `O=C1CCC[C@@H]2OC[C@@H](Cc3c[nH]c4ccccc34)N12`, the Ratio IC50 was found to be 1.5.
